Laboratory results from US7741326B2, “Indole and benzofuran 2-carboxamide derivatives and uses thereof” (Roche Palo Alto LLC, priority 2006, dated 2010).

Assays:
[1] = biological target: T1, recombinant human 5-HT2A receptor (Homo sapiens, UniProt P28223); experiment: Radioligand binding, [3H]Ketanserin competition in CHO-K1 cell membranes; conditions: [3H]Ketanserin displacement, pH 7.4 at 32° C., read-out: pKi for the 5-HT2A receptor (converted)
T1 construct: expressed in transfected cells
Experimental: (§1) The binding activity of compounds of this invention in vitro was determined as follows. Duplicate determinations of 5-HT6 ligand affinity were made by competing for binding of [^3H]LSD in cell membranes derived from HEK293 cells stably expressing recombinant human 5-HT6 receptor. Duplicate determinations of 5-HT2A ligand affinity were made by competing for binding of [^3H]Ketanserin (3-(2-(4-(4-fluorobenzoyl)piperidinol)ethyl)-2,4(1H,3H)-quinazolinedione) in cell membranes derived from CHO-Ki cells stably expressing recombinant human 5-HT2A receptor. Membranes were prepared from HEK 293 cell lines by the method described by Monsma et al., Molecular Pharmacology, Vol. 43 pp. 320-327 (1993), and from CHO-K1 cell lines as described by Bonhaus et al., Br J Pharmacol. June; 115(4):622-8 (1995).
(§2) For estimation of affinity at the 5-HT6 receptor, all determinations were made in assay buffer containing 50 mM Tris-HCl, 10 mM MgSO4, 0.5 mM EDTA, 1 mM ascorbic acid, pH 7.4 at 37° C., in a 250 microliter reaction volume. […]
(§3) Assay tubes containing [^3H] […] LSD or [^3H]Ketanserin were determined as radioactive counts per minute using Packard TopCount.
(§4) Displacement of [^3H]LSD or [^3H]Ketanserin from the binding sites was quantified by fitting concentration-binding data to a 4-parameter logistic equation: […]

[2] = biological target: T2, recombinant human 5-HT6 receptor (Homo sapiens, UniProt P50406); experiment: Radioligand binding, [3H]LSD competition in HEK293 cell membranes; conditions: [3H]LSD displacement, pH 7.4 at 37° C., read-out: pKi for the 5-HT6 receptor (converted)
T2 construct: expressed in transfected cells
Experimental: as §1, §2, §3, §4

T1 sequence (P28223 whole entry): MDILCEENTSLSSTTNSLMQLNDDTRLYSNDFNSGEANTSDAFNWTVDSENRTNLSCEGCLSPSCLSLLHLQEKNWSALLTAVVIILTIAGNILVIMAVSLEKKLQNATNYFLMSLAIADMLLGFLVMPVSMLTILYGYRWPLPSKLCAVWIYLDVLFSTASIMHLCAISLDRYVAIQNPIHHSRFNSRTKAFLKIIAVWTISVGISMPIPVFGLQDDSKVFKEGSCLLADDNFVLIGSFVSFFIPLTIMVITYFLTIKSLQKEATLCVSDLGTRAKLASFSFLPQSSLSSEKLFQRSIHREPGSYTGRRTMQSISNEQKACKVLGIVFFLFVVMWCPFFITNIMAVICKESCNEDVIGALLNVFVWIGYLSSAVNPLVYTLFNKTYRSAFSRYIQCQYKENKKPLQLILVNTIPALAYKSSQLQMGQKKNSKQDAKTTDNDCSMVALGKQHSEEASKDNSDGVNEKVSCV
T2 sequence (P50406 whole entry): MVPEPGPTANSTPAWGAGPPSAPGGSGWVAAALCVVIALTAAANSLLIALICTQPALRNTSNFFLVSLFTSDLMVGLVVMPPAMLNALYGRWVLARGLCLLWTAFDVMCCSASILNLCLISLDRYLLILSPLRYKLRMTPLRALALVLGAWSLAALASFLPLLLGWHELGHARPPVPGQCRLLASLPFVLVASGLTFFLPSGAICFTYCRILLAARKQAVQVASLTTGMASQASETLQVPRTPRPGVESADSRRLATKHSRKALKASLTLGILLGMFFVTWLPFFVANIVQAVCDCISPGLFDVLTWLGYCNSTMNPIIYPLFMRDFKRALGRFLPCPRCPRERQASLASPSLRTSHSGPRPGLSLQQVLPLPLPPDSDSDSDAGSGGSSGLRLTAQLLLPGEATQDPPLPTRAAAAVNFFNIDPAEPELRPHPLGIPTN

Structure (SMILES) | Ki [1] | Ki [2]
Cc1cc(N2CCNCC2)c2oc(C(N)=O)c(Cc3cccc(F)c3)c2c1 [Compound 31, 3-(3-Fluoro-benzyl)-5-methyl-7-piperazin-1-yl-benzofuran-2-carboxylic acid amide] | ~1.23 nM | –
CNC(=O)c1cc2c(N3CCNCC3)cccc2n1Cc1cccc(F)c1 [Compound 26, 1-(3-Fluoro-benzyl)-4-piperazin-1-yl-1H-indole-2-carboxylic acid methylamide] | – | ~0.126 nM
